# Measurements: ChEMBL document CHEMBL5385846, “Discovery and development of palmatine analogues as anti-NASH agents by activating farnesoid X receptor (FXR)” (Eur J Med Chem, 2023)
# Calls of active or inactive are those of the source. The rule behind the calls is not given here.
# How the values were obtained:
# [1] = Acute toxicity in Kunming mouse assessed as effect on […] level at 250 to 1000 mg/kg,po administration; assay type: organism-based; conditions: in vivo, dose 250-1000 mg/kg
# [2] = test system: Mus musculus; test: Hepatoprotective activity in CDAHFD induced C57BL/6N mouse liver injury model assessed as decrease in ALP level at 200 mg/kg,po qd administration for 4 weeks; assay type: functional, organism-based
# [3] = test system: LX-2; test: Antifibrotic activity in TGF-beta1 induced human LX2 cells assessed as downregulation of TIMP1 protein expression incubated for 24 hrs by western blotting analysis; assay type: functional, cell-based
# [4] = test system: LX-2; test: Antifibrotic activity in TGF-beta1 induced human LX2 cells assessed as downregulation of alpha-SMA protein expression incubated for 24 hrs by western blotting analysis; assay type: functional, cell-based
# [5] = test system: LX-2; test: Antifibrotic activity in TGF-beta1 induced human LX2 cells assessed as downregulation of TIMP1 mRNA expression incubated for 24 hrs by qRT-PCR analysis; assay type: functional, cell-based
smiles,measurement,setting,value
COc1cc2c(cc1OC)-c1cc3ccc(OC)c(OCc4cccc(C)c4)c3c[n+]1CC2.[Br-],Activity,[1],Non-Toxic
same,Activity,[2],Active
same,Activity,[3],Dose-Dependent Effect
same,Activity,[4],Dose-Dependent Effect
same,Activity,[5],Dose-Dependent Effect
